# Literature values in patent publication US20110184060A1, “ORAL DOSAGE FORMS HAVING A HIGH LOADING OF A TRANEXAMIC ACID PRODRUG” (XenoPort, Inc., priority 2010, published 2011).
# Where two headings read alike, the source gives them in different places.
# How the values were obtained:
# [1] = human subjects, prodrug
# [2] = statement in words, no data given
# [3] = not given; remark: listed apart in the source
compound,measurement,setting,value
"CCOC(=O)OC(C)OC(=O)[C@H]1CC[C@H](CN)CC1 (relative stereo) [Kabi 2161, 1-(ethoxycarbonyl)oxyethyl trans-4-(aminomethyl)-cyclohexane carboxylate]",oral bioavailability of tranexamic acid,[1],improved oral bioavailability of tranexamic acid
"CC(OC(=O)NC[C@H]1CC[C@H](C(=O)O)CC1)OC(=O)C(C)C (stereo partly drawn) [Compound (1), 4-({[(2-methylpropanoyloxy)ethoxy]carbonylamino}methyl)cyclohexanecarboxylic acid]",oral bioavailability of tranexamic acid,[2],high oral bioavailability of tranexamic acid
"NC[C@H]1CC[C@H](C(=O)O)CC1 [tranexamic acid, trans-4-(aminomethyl)-cyclohexanecarboxylic acid]",reduction of post-operative bleeding,"cardiopulmonary bypass surgery, prophylactic administration of lysine analogs such as tranexamic acid",30-40%
same,reduction of total blood loss,"subjects undergoing total knee arthroplasty, prophylactic administration",up to 50%
same,oral bioavailability,[3]; oral tranexamic acid,about 30%
same,terminal elimination half life,[3]; tranexamic acid,about 2 hours
